Source: paper PMC6037002, “Drug targeting to decrease cardiotoxicity – determination of the cytotoxic effect of GnRH-based conjugates containing doxorubicin, daunorubicin and methotrexate on human cardiomyocytes and endothelial cells” (Beilstein Journal of Organic Chemistry, 2018)
Where two headings read alike, the source gives them in different places.

Legend:
[1] = system: human umbilical vein endothelial cells (HUVEC); experiment: Impedimetric measurement (xCELLigence SP), delta slope, HUVEC; details: for delta slope (DS), short-term / delta slope (DS), long-term: HUVEC, three parallels; for delta slope (DS), short-term: 0–2 h; for delta slope (DS), long-term: 0–72 h; for Cardiotoxicity, HUVEC: grade +++/++/+/0, key not given, summary of impedimetric cytotoxicity; for cytotoxic effect on HUVEC, result in words: long-term (0–72 h), 10^−8–10^−6 mol/L, impedimetry, one-way ANOVA
Description: (§1) The main objective of the study reported here was to evaluate the in vitro cardiotoxic effects (as undesired side effects) of […] GnRH-III-based conjugates containing doxorubicin, daunorubicin and methotrexate on two essential target cells of cardiovascular diseases: vascular endothelial cells and cardiomyocytes. The rate of cytotoxicity (antitumor effect) vs cardiotoxicity (toxic effects on cardiomyocytes and vascular endothelium) is an important factor for efficient drug development for targeted tumor therapy with minimized side effects. The technique used in this work – impedimetry – is a dedicated one for real-time monitoring of cells to distinguish short-term (0–2 hours) and long-term (0–72 hours) effects elicited by the drug or carrier–drug conjugates. The basic theory of impedimetry is that proliferation/viability of cells is well detectable by monitoring of the electric impedance (Z) in an AC environment, due to the electric insulator character of intact surface membranes composed of the phospholipid bilayer. […] While cell physiological responses of short-term exposures result in characteristic changes of cell morphology (e.g., spreading), long-term effects characteristically influence in particular the proliferation of cells, and therefore the cytotoxic effects. The presented dimensionless values of delta slope (DS) measure the difference between the slope of the curve corresponding to the treatment and that of the control curve in impedimetric recordings, the negative signs refer to the relative values to the identical control.
(§2) Experimental part – Cellular samples
(§3) In the present study, GnRH conjugates containing anti-tumour drugs (e.g., daunorubicin, doxorubicin) were investigated in order to evaluate whether the conjugates exert a decrease cardiotoxic effect compared to that of the free drugs. The cardiac myocytes and the vascular endothelium cells are the most frequently detected target cells of antitumor compounds and they are employed in our study. Human umbilical vein endothelial cells (HUVEC; Promocell, Biomedica, Wien, Austria) were cultured in Endothelial Cell Growth Medium with Endothelial Cell Growth Supplement Mix (Promocell, Biomedica, Wien, Austria) and 100 µg/mL penicillin/streptomycin. Primary human cardiac myocytes (HCM; Promocell, Biomedica, Wien, Austria) were cultured in Myocyte Growth Medium (Promocell, Biomedica, Wien, Austria).
(§4) Impedimetric measurements
(§5) The xCELLigence SP system was used for impedimetric measurements. The bottom of the wells of a 96-well E-plate is installed with a golden electrode array that constitutes the adhesion surface. Adhering cells – acting as insulators – change the electric impedance measured on the electrodes. The measured impedance change is in direct correlation with the number of adhering cells and the extent of adhesion. The results of impedance change are given in the form of Cell Index (CI) calculated by the xCELLigence system according to the […]
(§6) where Zt is the measured impedance in a time point, Zb is the background impedance and F is an inbuilt factor (F = 15 at 10 kHz) depending on the frequency of the alternating current. The measurements took place in an incubator holding a 37 °C temperature and 5% carbon-dioxide […]
(§7) The experiments started with a measurement of baseline impedance for 1 hour. After that, the cells (10^4 cells/well) were added to the wells and allowed to adhere to the electrodes. When the adhering cells reached a balanced state in the wells, signified by the impedance curves […]
(§8) free drugs at 10−12 – 10−6 M and the conjugates at 10−8 – 10−6 M final concentrations were […]
(§9) added to the wells. The changes in impedance were measured for at least 72 hours. For each measurement three parallels were measured.
(§10) The evaluation of responses followed the previously described strategy: acute effects of compounds were evaluated as a characteristic morphology of the curves in the 0–2 hours

[2] = system: primary human cardiac myocytes (HCM); details: for delta slope (DS), short-term / delta slope (DS), long-term: HCM, three parallels; for delta slope (DS), short-term: 0–2 h; for delta slope (DS), long-term: 0–72 h; for Cardiotoxicity, HCM: grade +++/++/+/0, key not given, summary of impedimetric cytotoxicity; for cytotoxic effect on HCM, result in words: long-term (0–72 h), 10^−8–10^−6 mol/L (free drugs 10^−12–10^−6 mol/L), impedimetry, one-way ANOVA
Description: as §1, §2, §3, §4, §5, §6, §7, §8, §9, §10

[3] = system: HT-29 human colon adenocarcinoma cells; details: MTT assay; cited from earlier work
Description: (§11) Table 1 Comparative study of cytotoxic effects and cardiotoxicity elicited by GnRH-based antitumor compounds (1–15) and reference substances (AN-152, Dox, Dau, Mtx). IC50 values show antitumor cytotoxic characteristics of the conjugates in human breast cancer (MCF-7), human colorectal adenocarcinoma (HT-29) and human acute monocytic leukemia (MM6) derived cell lines as representative tumor cells.

[4] = system: human acute monocytic leukemia (MonoMac6) cells; details: cited from earlier work
Description: as §11

[5] = system: MCF-7 human breast adenocarcinoma cells; details: MTT assay; cited from earlier work
Description: as §11

Substance: GnRH-III(Dox-glut-GFLG) [conjugate 2]
- delta slope (DS), short-term ([1]; Table S2a, 10^-6 mol/L): 0.058
- delta slope (DS), short-term ([1]; Table S2a, 10^-7 mol/L): 0.016
- delta slope (DS), short-term ([1]; Table S2a, 10^-8 mol/L): -0.004
- delta slope (DS), long-term ([1]; Table S2a, 10^-6 mol/L, listed as 2): -0.042
- delta slope (DS), long-term ([1]; Table S2a, 10^-6 mol/L, listed as GnRH-III(Dox-glut-GFLG)): −0.042
- delta slope (DS), long-term ([1]; Table S2a, 10^-7 mol/L, listed as 2): -0.017
- delta slope (DS), long-term ([1]; Table S2a, 10^-7 mol/L, listed as GnRH-III(Dox-glut-GFLG)): −0.017
- delta slope (DS), long-term ([1]; Table S2a, 10^-8 mol/L): -0.002
- delta slope (DS), short-term ([2]; Table S2b, 10^-6 mol/L): 0.008
- delta slope (DS), short-term ([2]; Table S2b, 10^-7 mol/L): 0.003
- delta slope (DS), short-term ([2]; Table S2b, 10^-8 mol/L): 0.009
- delta slope (DS), long-term ([2]; Table S2b, 10^-6 mol/L): −0.019
- delta slope (DS), long-term ([2]; Table S2b, 10^-7 mol/L): −0.004
- delta slope (DS), long-term ([2]; Table S2b, 10^-8 mol/L): 0.001
- IC50 [3]: > 100 µM
- IC50 [4]: 89 ± 20 nM
- IC50 [5]: > 100 µM

Substance: GnRH-III(Dox=Aoa-GFLG) [conjugate 3]
- delta slope (DS), short-term ([1]; Table S2a, 10^-6 mol/L): -0.006
- delta slope (DS), short-term ([1]; Table S2a, 10^-7 mol/L): -0.003
- delta slope (DS), short-term ([1]; Table S2a, 10^-8 mol/L): -0.002
- delta slope (DS), long-term ([1]; Table S2a, 10^-6 mol/L, listed as 3): -0.009
- delta slope (DS), long-term ([1]; Table S2a, 10^-6 mol/L, listed as GnRH-III(Dox=Aoa-GFLG)): −0.009
- delta slope (DS), long-term ([1]; Table S2a, 10^-7 mol/L): -0.001
- delta slope (DS), long-term ([1]; Table S2a, 10^-8 mol/L): 0.0004
- delta slope (DS), short-term ([2]; Table S2b, 10^-6 mol/L): -0.002
- delta slope (DS), short-term ([2]; Table S2b, 10^-7 mol/L): 0.001
- delta slope (DS), short-term ([2]; Table S2b, 10^-8 mol/L): 0.004
- delta slope (DS), long-term ([2]; Table S2b, 10^-6 mol/L): −0.007
- delta slope (DS), long-term ([2]; Table S2b, 10^-7 mol/L): -0.001
- delta slope (DS), long-term ([2]; Table S2b, 10^-8 mol/L): 0.002
- IC50 [3]: 46.1 ± 6.1 µM
- IC50 [4]: 430 ± 40 nM
- IC50 [5]: 5.4 ± 1.9 µM

Substance: GnRH-III(Mtx-K(Dau=Aoa)) [conjugate 13]
- delta slope (DS), short-term ([1]; Table S5a, 10^-6 mol/L): 0.013
- delta slope (DS), short-term ([1]; Table S5a, 10^-7 mol/L): 0.002
- delta slope (DS), short-term ([1]; Table S5a, 10^-8 mol/L): 0.001
- delta slope (DS), long-term ([1]; Table S5a, 10^-6 mol/L): 0.001
- delta slope (DS), long-term ([1]; Table S5a, 10^-7 mol/L): 0.001
- delta slope (DS), long-term ([1]; Table S5a, 10^-8 mol/L): -0.001
- Cardiotoxicity, HUVEC [1]: 0
- cytotoxic effect on HUVEC, result in words [1]: no significant effect was detected
- delta slope (DS), short-term ([2]; Table S5b, 10^-6 mol/L): -0.003
- delta slope (DS), short-term ([2]; Table S5b, 10^-7 mol/L): 0.002
- delta slope (DS), short-term ([2]; Table S5b, 10^-8 mol/L): -0.002
- delta slope (DS), long-term ([2]; Table S5b, 10^-6 mol/L): -0.001
- delta slope (DS), long-term ([2]; Table S5b, 10^-7 mol/L): -0.001
- delta slope (DS), long-term ([2]; Table S5b, 10^-8 mol/L): -0.001
- Cardiotoxicity, HCM [2]: 0
- cytotoxic effect on HCM, result in words [2]: none of the two investigated mixed drug–GnRH-III conjugates (13 and 15) exerted any significant cytotoxic effect
- IC50 [3]: 5.6 ± 3 µM
- IC50 [4]: 1410 ± 390 nM
- IC50 [5]: 5.4 ± 0.7 µM

Substance: [^4Lys(Dau=Aoa)]-GnRH-III(Dau=Aoa) [conjugate 14]
- delta slope (DS), short-term ([1]; Table S3a, 10^-6 mol/L): 0.006
- delta slope (DS), short-term ([1]; Table S3a, 10^-7 mol/L): -0.005
- delta slope (DS), short-term ([1]; Table S3a, 10^-8 mol/L): 0.002
- delta slope (DS), long-term ([1]; Table S3a, 10^-6 mol/L): -0.001
- delta slope (DS), long-term ([1]; Table S3a, 10^-7 mol/L): -0.001
- delta slope (DS), long-term ([1]; Table S3a, 10^-8 mol/L): 0.001
- Cardiotoxicity, HUVEC [1]: 0
- cytotoxic effect on HUVEC, result in words [1]: completely lost the cytotoxic effect
- delta slope (DS), short-term ([2]; Table S3b, 10^-6 mol/L): -0.001
- delta slope (DS), short-term ([2]; Table S3b, 10^-7 mol/L): -0.002
- delta slope (DS), short-term ([2]; Table S3b, 10^-8 mol/L): 0.001
- delta slope (DS), long-term ([2]; Table S3b, 10^-6 mol/L): -0.002
- delta slope (DS), long-term ([2]; Table S3b, 10^-7 mol/L): -0.001
- delta slope (DS), long-term ([2]; Table S3b, 10^-8 mol/L): -0.0011
- cytotoxic effect on HCM, result in words [2]: completely lost their cytotoxic effect
- IC50 [3]: 6.8 ± 1 µM
- IC50 [4]: 513 ± 40 nM
- IC50 [5]: 2.9 ± 0.9 µM

Substance: [^4Lys(Mtx)]-GnRH-III(Dau=Aoa) [conjugate 15]
- delta slope (DS), short-term ([1]; Table S5a, 10^-6 mol/L): 0.006
- delta slope (DS), short-term ([1]; Table S5a, 10^-7 mol/L): -0.002
- delta slope (DS), short-term ([1]; Table S5a, 10^-8 mol/L): 0.006
- delta slope (DS), long-term ([1]; Table S5a, 10^-6 mol/L): -0.001
- delta slope (DS), long-term ([1]; Table S5a, 10^-7 mol/L): -0.001
- delta slope (DS), long-term ([1]; Table S5a, 10^-8 mol/L): 0.003
- Cardiotoxicity, HUVEC [1]: 0
- cytotoxic effect on HUVEC, result in words [1]: no significant cytotoxic effect
- delta slope (DS), short-term ([2]; Table S5b, 10^-6 mol/L): -0.001
- delta slope (DS), short-term ([2]; Table S5b, 10^-7 mol/L): -0.002
- delta slope (DS), short-term ([2]; Table S5b, 10^-8 mol/L): -0.003
- delta slope (DS), long-term ([2]; Table S5b, 10^-6 mol/L): -0.001
- delta slope (DS), long-term ([2]; Table S5b, 10^-7 mol/L): 0.001
- delta slope (DS), long-term ([2]; Table S5b, 10^-8 mol/L): -0.001
- Cardiotoxicity, HCM [2]: 0
- cytotoxic effect on HCM, result in words [2]: none of the two investigated mixed drug–GnRH-III conjugates (13 and 15) exerted any significant cytotoxic effect
- IC50 [3]: 3.6 ± 1.5 µM
- IC50 [4]: > 1000 nM
- IC50 [5]: 5.8 ± 1.1 µM
